Assay results: patent US10344032B2, “Agents for treating neurogenic inflammation and neuropathic hyperalgesia related disorders” (PÉCSI TUDOMÁNYEGYETEM, priority 2014, dated 2019)
Counter-ions that a name gives are not always drawn.

| Structure (SMILES) | melting point [°C] |
| --- | --- |
| Cc1c(C)n(Cc2cccc(Cl)c2)c2ncnc(NCCc3cccc(F)c3)c12 [Example 19, [7-(3-Chloro-benzyl)-5,6-dimethyl-7H-pyrrolo[2,3-d]pyrimidin-4-yl]-[2-(3-fluoro-phenyl)-ethyl]-amine] | 232 to 235 |
| Cc1c(C)n(CCCN(C)C)c2ncnc(NCC(O)c3ccccc3)c12 (centres unmarked) (as salt: salt) [Example 18, 2-[7-(3-Dimethylamino-propyl)-5,6-dimethyl-7H-pyrrolo[2,3-d]pyrimidin-4-ylamino]-1-phenyl-ethanol] | 209 to 212.9 |
| Cc1c(C)n(Cc2ccccc2)c2ncnc(NCCc3ccc(NC(=O)Nc4ccc(F)cc4F)cc3)c12 [Example 7, 1-{4-[2-(7-Benzyl-5,6-dimethyl-7H-pyrrolo[2,3-d]pyrimidin-4-ylamino)-ethyl]-phenyl}-3-(2,4-difluoro-phenyl)-urea] | 208 to 209.2 |
| Cc1c(C)n(CCCN(C)C)c2ncnc(NCCc3ccccc3Cl)c12 (as salt: salt) [Example 16, [2-(2-Chloro-phenyl)-ethyl]-[7-(3-dimethylamino-propyl)-5,6-dimethyl-7H-pyrrolo[2,3-d]pyrimidin-4-yl]-amine] | 245 to 248 |
| Cc1c(C)n(Cc2ccco2)c2ncnc(NCCc3ccccc3Cl)c12 [Example 31, [2-(2-Chloro-phenyl)-ethyl]-(7-furan-2-ylmethyl-5,6-dimethyl-7H-pyrrolo[2,3-d]pyrimidin-4-yl)-amine] | 128.9 to 129.2 |
| Cc1c(C)n(CCCN(C)C)c2ncnc(NCCc3cccc(F)c3)c12 (as salt: salt) [Example 17, [7-(3-Dimethylamino-propyl)-5,6-dimethyl-7H-pyrrolo[2,3-d]pyrimidin-4-yl]-[2-(3-fluoro-phenyl)-ethyl]-amine] | 239 to 240.2 |
| Cc1c(C)n(Cc2ccco2)c2ncnc(NCCc3ccccc3)c12 [Example 32, (7-Furan-2-ylmethyl-5,6-dimethyl-7H-pyrrolo[2,3-d]pyrimidin-4-yl)-phenethyl-amine] | 221 to 223 |
| COc1ccc(CCNc2ncnc3c2ccn3Cc2ccccc2)cc1OC [Example 24, (7-Benzyl-7H-pyrrolo[2,3-d]pyrimidin-4-yl)-[2-(3,4-dimethoxy-phenyl)-ethyl]-amine] | 177.3 to 178.3 |
| Clc1ccccc1CCNc1ncnc2c1ccn2Cc1ccccc1 [Example 25, (7-Benzyl-7H-pyrrolo[2,3-d]pyrimidin-4-yl)-[2-(2-chloro-phenyl)-ethyl]-amine] | 180 to 182.3 |
| COc1ccc(CCNc2ncnc3c2c(C)c(C)n3CCCN(C)C)cc1OC (as salt: salt) [Example 15, [2-(3,4-Dimethoxy-phenyl)-ethyl]-[7-(3-dimethylamino-propyl)-5,6-dimethyl-7H-pyrrolo[2,3-d]pyrimidin-4-yl]-amine] | 156 to 158.2 |
| c1ccc(CCNc2ncnc3c2ccn3Cc2ccccc2)cc1 [Example 26, (7-Benzyl-7H-pyrrolo[2,3-d]pyrimidin-4-yl)-phenethyl-amine] | 210 to 211.8 |
| Cc1c(C)n(Cc2ccccc2)c2ncnc(NCCc3ccc(N4C(=O)c5ccccc5C4=O)cc3)c12 [Example 6, 2-{4-[2-(7-Benzyl-5,6-dimethyl-7H-pyrrolo[2,3-d]pyrimidin-4-ylamino)-ethyl]-phenyl}-isoindole-1,3-dione] | 219 to 221 |
| Nc1ccc(CCNc2ncnc3c2ccn3Cc2ccccc2)cc1 [Example 8, [2-(4-Amino-phenyl)-ethyl]-(7-benzyl-7H-pyrrolo[2,3-d]pyrimidin-4-yl)-amine] | > 260 |
| Cc1c(C)n(Cc2ccco2)c2ncnc(NCCc3cccc(F)c3)c12 [Example 33, [2-(3-Fluoro-phenyl)-ethyl]-(7-furan-2-ylmethyl-5,6-dimethyl-7H-pyrrolo[2,3-d]pyrimidin-4-yl)-amine] | 89 to 90 |

Next, values leading:

| melting point [°C] | Structure (SMILES) |
| --- | --- |
| 199.2 to 200.6 | Oc1ccc(CCNc2ncnc3c2ccn3Cc2ccccc2)cc1 [Example 60, 4-[2-(7-Benzyl-7H-pyrrolo[2,3-d]pyrimidin-4-ylamino)-ethyl]-phenol] |
| 151 to 152.3 | Cc1c(C)n(Cc2cccc(Cl)c2)c2ncnc(NCCc3ccc(NC(=O)c4ccccc4)cc3)c12 [Example 44, N-(4-{2-[7-(3-Chloro-benzyl)-5,6-dimethyl-7H-pyrrolo[2,3-d]pyrimidin-4-ylamino]-ethyl}-phenyl)-benzamide] |
| 112.9 to 113.3 | CCN(CC)C(=O)Nc1ccc(CCNc2ncnc3c2c(C)c(C)n3Cc2cccc(Cl)c2)cc1 [Example 52, 3-(4-{2-[7-(3-Chloro-benzyl)-5,6-dimethyl-7H-pyrrolo[2,3-d]pyrimidin-4-ylamino]-ethyl}-phenyl)-1,1-diethyl-urea] |
| 119 to 120.4 | COc1ccc(CCNc2ncnc3c2ccn3Cc2cncc(Br)c2)cc1OC (as salt: salt) [Example 37, [7-(5-Bromo-pyridin-3-ylmethyl)-7H-pyrrolo[2,3-d]pyrimidin-4-yl]-[2-(3,4-dimethoxy-phenyl)-ethyl]-amine] |
| 161.9 to 162.9 | Cc1c(C)n(Cc2ccccc2)c2ncnc(NCCc3ccc(NC(=O)Nc4cccc(C(F)(F)F)c4)cc3)c12 [Example 57, 1-{4-[2-(7-Benzyl-5,6-dimethyl-7H-pyrrolo[2,3-d]pyrimidin-4-ylamino)-ethyl]-phenyl}-3-(3-trifluoromethyl-phenyl)-urea] |
| 206.8 to 208.1 | CC(=O)Nc1ccc(CCNc2ncnc3c2c(C)c(C)n3Cc2ccco2)cc1 [Example 46, N-{4-[2-(7-Furan-2-ylmethyl-5,6-dimethyl-7H-pyrrolo[2,3-d]pyrimidin-4-ylamino)-ethyl]-phenyl}-acetamide] |
| 167.5 to 168 | Cc1c(C)n(Cc2ccco2)c2ncnc(NCC(O)c3ccccc3)c12 (centres unmarked) [Example 35, 2-(7-Furan-2-ylmethyl-5,6-dimethyl-7H-pyrrolo[2,3-d]pyrimidin-4-ylamino)-1-phenyl-ethanol] |
| 110 to 113 | Cc1c(C)n(Cc2ccccc2)c2ncnc(NCCc3ccc(NC(=O)c4cccc(C(F)(F)F)c4)cc3)c12 [Example 48, N-{4-[2-(7-Benzyl-5,6-dimethyl-7H-pyrrolo[2,3-d]pyrimidin-4-ylamino)-ethyl]-phenyl}-3-trifluoromethyl-benzamide] |
| 95 to 96.6 | Cc1c(C)n(Cc2ccccc2)c2ncnc(NCCc3ccc(N(C)C)cc3)c12 [Example 62, (7-Benzyl-5,6-dimethyl-7H-pyrrolo[2,3-d]pyrimidin-4-yl)-[2-(4-dimethylamino-phenyl)-ethyl]-amine] |
| 237.6 to 240 | Cc1c(C)n(Cc2ccccc2)c2ncnc(NCCc3cccc(F)c3)c12 [Example 43, (7-Benzyl-5,6-dimethyl-7H-pyrrolo[2,3-d]pyrimidin-4-yl)-[2-(3-fluoro-phenyl)-ethyl]-amine] |
| 125 to 129 | Cc1c(C)n(Cc2cccc(Cl)c2)c2ncnc(NCCc3ccc(NS(C)(=O)=O)cc3)c12 [Example 55, N-(4-{2-[7-(3-Chloro-benzyl)-5,6-dimethyl-7H-pyrrolo[2,3-d]pyrimidin-4-ylamino]-ethyl}-phenyl)-methanesulfonamide] |
| 138.5 to 139 | CCN(CC)C(=O)Nc1ccc(CCNc2ncnc3c2c(C)c(C)n3Cc2ccccc2)cc1 [Example 53, 3-{4-[2-(7-Benzyl-5,6-dimethyl-7H-pyrrolo[2,3-d]pyrimidin-4-ylamino)-ethyl]-phenyl}-1,1-diethyl-urea] |
